# Source: article PMC8087847, “Effects of self-assembled cell-penetrating peptides and their nano-complexes on ABCB1 expression and activity” (Iranian Journal of Basic Medical Sciences, 2021)
# Entries after “also recorded” stand apart in the source; their conditions may differ. Read-outs that look alike come from different tables or passages of the source. No end group written: not given here.
# How the values were obtained:
# [1] = tested on: A549 Dox-resistant cells; experiment: MTT cell viability, effect of CPPs on Dox cytotoxicity
# Experimental: (§1) A549 cell line is derived from a drug-resistant human lung carcinoma tissue and adherent in culture. […] It was cultured in RPMI-1640 medium supplemented with 10% FBS, 100 units/ml penicillin, and 100 µg/ml streptomycin at 37 °C in 5% CO2 a humidified atmosphere. Moreover, to develop resistance, 0.1 µM Dox was added to the medium which was not toxic to the cells.
# (§2) Cells were detached from flasks by trypsin and seeded in 96-well plates with a cell density of 1.5×10^4 cells/well (containing 200 μl/well of medium) and incubated for 24 hr at 37 °C in a humidified atmosphere of 5% CO2. The next day, cells were treated with different concentrations of peptides (15, 25, 50 μM), and incubated at the same condition for 24 hr. […] Data were collected from at least 3 independent experiments performed in triplicates and analyzed using the Graphpad Prism 7 software package.
# [2] = tested on: A549 Dox-resistant cells
# Experimental: as §1, §2
# [3] = tested on: A549 cells
# Experimental: (§3) First, cells were seeded in 6-well plates (3×10^5 cells/well) and incubated for 24 hr. Then the medium was removed and cells were washed with PBS. FAM-labeled peptides and nano-complexes were added to wells and incubation was continued for 90 min. The old medium was removed and cells were washed with PBS three times and detached by trypsin/EDTA. Then 2 ml of medium was added to each well, and cells were centrifuged for 5 min, followed by washing three times with PBS and finally suspended in flow cytometry buffer to study the cellular uptake of FAM-labeled peptides and nano-complexes.
# [4] = tested on: A549 cells; experiment: Cellular uptake of FAM-labeled peptides by flow cytometry; conditions: different concentrations, comparison stated in discussion
# Experimental: as §3
compound,measurement,setting,value
"COc1cccc2c1C(=O)c1c(O)c3c(c(O)c1C2=O)C[C@@](O)(C(=O)CO)C[C@@H]3O[C@H]1C[C@H](N)[C@H](O)[C@H](C)O1 [Dox, Doxorubicin, reference compound]",IC50,"[1]; Homo sapiens, A549, read-out: IC50 of Dox",20 µM
KKKKKKKKKK [Peptide P8],cell viability,"[1]; 15 µM peptide 24 hr pre-treatment, then 20 µM Dox, 24 hr, MTT, at least 3 independent experiments in triplicates",52.5%
same,effect on Dox cytotoxicity,[2],increased Dox cytotoxicity
same,"cellular uptake (discussion, method not specified)",[3],higher uptake compared with P8/E10 nano-complexes
N=C(N)NCCC[C@H](NC(=O)[C@H](CCCNC(=N)N)NC(=O)[C@H](CCCNC(=N)N)NC(=O)[C@H](CCCNC(=N)N)NC(=O)[C@H](CCCNC(=N)N)NC(=O)[C@H](CCCNC(=N)N)NC(=O)[C@H](CCCNC(=N)N)NC(=O)[C@H](CCCNC(=N)N)NC(=O)[C@H](CCCNC(=N)N)NC(=O)[C@@H](N)CCCNC(=N)N)C(=O)O [Peptide P7],"cellular uptake (discussion, method not specified)",[4],higher uptake efficacy
same,effect on Dox cytotoxicity,"[1]; 25 µM and 50 µM peptide, 20 µM Dox, 24 hr (Figure 3a), MTT",resulted in Dox cytotoxicity; also recorded: increased the Dox toxicity
same,effect on cytotoxicity of Dox,"[1]; 50 µM peptide, 20 µM Dox, after 48 hr (Figure 3b), MTT",increased the cytotoxicity of Dox
same,effect on Dox cytotoxicity,"[1]; after 48 hr, peptide concentration not stated (abstract)",increased Dox cytotoxicity
